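Growth conditions: 96-well plates. Treatment: test compound, 48 hours, 5 concentrations. Analysis: linear interpolation between bracketing concentrations; unreached endpoints set to highest concentration. TGI: concentration producing complete growth inhibition.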
What was measured:
Assay in all cases: NCI anticancer screen, dose series, 48 h
DMS 114 small cell lung = system: DMS 114 small cell lung
SNB-19 CNS = system: SNB-19 CNS
SR leukemia = system: SR leukemia
SNB-75 CNS = system: SNB-75 CNS
NCI-H23 lung = system: NCI-H23 lung
COLO 205 colon = system: COLO 205 colon
NCI-H460 lung = system: NCI-H460 lung
LOX IMVI melanoma = system: LOX IMVI melanoma
IGROV1 ovarian = system: IGROV1 ovarian
M14 melanoma = system: M14 melanoma
SK-MEL-5 melanoma = system: SK-MEL-5 melanoma
HCT-15 colon = system: HCT-15 colon
K-562 leukemia = system: K-562 leukemia
OVCAR-8 ovarian = system: OVCAR-8 ovarian
HOP-92 NSCLC = system: HOP-92 NSCLC
UACC-257 melanoma = system: UACC-257 melanoma
786-0 renal = system: 786-0 renal
M19-MEL melanoma = system: M19-MEL melanoma
OVCAR-5 ovarian = system: OVCAR-5 ovarian
A498 renal = system: A498 renal
RXF-631 renal = system: RXF-631 renal
HOP-18 NSCLC = system: HOP-18 NSCLC
A549 NSCLC = system: A549 NSCLC
SNB-78 CNS = system: SNB-78 CNS
EKVX NSCLC = system: EKVX NSCLC
HL-60(TB) leukemia = system: HL-60(TB) leukemia
SK-OV-3 ovarian = system: SK-OV-3 ovarian
UO-31 renal = system: UO-31 renal
MALME-3M melanoma = system: MALME-3M melanoma
KM12 colon = system: KM12 colon
CAKI-1 renal = system: CAKI-1 renal
SF-539 CNS = system: SF-539 CNS
XF 498 CNS = system: XF 498 CNS
SK-MEL-28 melanoma = system: SK-MEL-28 melanoma
TK-10 renal = system: TK-10 renal
RXF 393 renal = system: RXF 393 renal
DLD-1 colon = system: DLD-1 colon
SN12C renal = system: SN12C renal
SF-295 CNS = system: SF-295 CNS
HOP-62 NSCLC = system: HOP-62 NSCLC
MOLT-4 leukemia = system: MOLT-4 leukemia
SF-268 CNS = system: SF-268 CNS
LXFL 529 NSCLC = system: LXFL 529 NSCLC
SW-620 colon = system: SW-620 colon
HCC-2998 colon = system: HCC-2998 colon
U251 CNS = system: U251 CNS
OVCAR-4 ovarian = system: OVCAR-4 ovarian
NCI-H226 lung = system: NCI-H226 lung
NCI-H522 lung = system: NCI-H522 lung
KM20L2 colon = system: KM20L2 colon
CCRF-CEM leukemia = system: CCRF-CEM leukemia
HCT-116 colon = system: HCT-116 colon
SK-MEL-2 melanoma = system: SK-MEL-2 melanoma
RPMI-8226 leukemia = system: RPMI-8226 leukemia
HT29 colon = system: HT29 colon
DMS 273 small cell lung = system: DMS 273 small cell lung
OVCAR-3 ovarian = system: OVCAR-3 ovarian
ACHN renal = system: ACHN renal
UACC-62 melanoma = system: UACC-62 melanoma

CCC(CO)COC(=O)/C=C/C(=O)OCC(CC)CO (stereo unspecified)
TGI (DMS 114 small cell lung): > 100 µM
TGI (SNB-19 CNS): > 100 µM
TGI (SR leukemia): > 95.6 µM
TGI (SNB-75 CNS): > 100 µM
TGI (NCI-H23 lung): > 100 µM
TGI (COLO 205 colon): > 100 µM
TGI (NCI-H460 lung): > 100 µM
TGI (LOX IMVI melanoma): > 100 µM
TGI (IGROV1 ovarian): > 100 µM
TGI (M14 melanoma): > 100 µM
TGI (SK-MEL-5 melanoma): > 100 µM
TGI (HCT-15 colon): > 100 µM
TGI (K-562 leukemia): > 100 µM
TGI (OVCAR-8 ovarian): > 100 µM
TGI (HOP-92 NSCLC): > 100 µM
TGI (UACC-257 melanoma): > 100 µM
TGI (786-0 renal): > 100 µM
TGI (M19-MEL melanoma): > 100 µM
TGI (OVCAR-5 ovarian): > 100 µM
TGI (A498 renal): > 100 µM
TGI (RXF-631 renal): > 100 µM
TGI (HOP-18 NSCLC): > 100 µM
TGI (A549 NSCLC): > 100 µM
TGI (SNB-78 CNS): > 100 µM
TGI (EKVX NSCLC): > 100 µM
TGI (HL-60(TB) leukemia): 45.5 µM
TGI (SK-OV-3 ovarian): > 100 µM
TGI (UO-31 renal): > 100 µM
TGI (MALME-3M melanoma): > 100 µM
TGI (KM12 colon): > 100 µM
TGI (CAKI-1 renal): > 100 µM
TGI (SF-539 CNS): > 100 µM
TGI (XF 498 CNS): > 100 µM
TGI (SK-MEL-28 melanoma): > 100 µM
TGI (TK-10 renal): > 100 µM
TGI (RXF 393 renal): > 100 µM
TGI (DLD-1 colon): > 100 µM
TGI (SN12C renal): > 100 µM
TGI (SF-295 CNS): > 100 µM
TGI (HOP-62 NSCLC): > 100 µM
TGI (MOLT-4 leukemia): > 100 µM
TGI (SF-268 CNS): > 100 µM
TGI (LXFL 529 NSCLC): > 100 µM
TGI (SW-620 colon): > 100 µM
TGI (HCC-2998 colon): > 100 µM
TGI (U251 CNS): > 100 µM
TGI (OVCAR-4 ovarian): > 100 µM
TGI (NCI-H226 lung): > 100 µM
TGI (NCI-H522 lung): > 100 µM
TGI (KM20L2 colon): > 100 µM
TGI (CCRF-CEM leukemia): > 82.6 µM
TGI (HCT-116 colon): > 100 µM
TGI (SK-MEL-2 melanoma): > 100 µM
TGI (RPMI-8226 leukemia): > 100 µM
TGI (HT29 colon): > 100 µM
TGI (DMS 273 small cell lung): > 100 µM
TGI (OVCAR-3 ovarian): > 100 µM
TGI (ACHN renal): > 100 µM
TGI (UACC-62 melanoma): > 100 µM

COC(=O)C(=O)C(C(=O)C(=O)Nc1ccccc1C(N)=O)c1nc2ccc([N+](=O)[O-])cc2[nH]c1=O (stereo unspecified)
TGI (SNB-19 CNS): > 100 µM
TGI (SR leukemia): > 100 µM
TGI (SNB-75 CNS): > 100 µM
TGI (NCI-H23 lung): > 100 µM
TGI (COLO 205 colon): > 100 µM
TGI (NCI-H460 lung): > 100 µM
TGI (LOX IMVI melanoma): > 100 µM
TGI (IGROV1 ovarian): > 100 µM
TGI (M14 melanoma): > 100 µM
TGI (SK-MEL-5 melanoma): > 100 µM
TGI (HCT-15 colon): > 100 µM
TGI (K-562 leukemia): > 100 µM
TGI (OVCAR-8 ovarian): > 100 µM
TGI (HOP-92 NSCLC): > 100 µM
TGI (UACC-257 melanoma): > 100 µM
TGI (786-0 renal): > 100 µM
TGI (M19-MEL melanoma): > 100 µM
TGI (OVCAR-5 ovarian): > 100 µM
TGI (A498 renal): > 100 µM
TGI (RXF-631 renal): > 100 µM
TGI (HOP-18 NSCLC): > 100 µM
TGI (A549 NSCLC): > 100 µM
TGI (SNB-78 CNS): > 100 µM
TGI (EKVX NSCLC): > 100 µM
TGI (HL-60(TB) leukemia): > 100 µM
TGI (SK-OV-3 ovarian): > 100 µM
TGI (UO-31 renal): > 100 µM
TGI (MALME-3M melanoma): > 100 µM
TGI (KM12 colon): > 100 µM
TGI (CAKI-1 renal): > 100 µM
TGI (SF-539 CNS): > 100 µM
TGI (XF 498 CNS): > 100 µM
TGI (SK-MEL-28 melanoma): > 100 µM
TGI (TK-10 renal): > 100 µM
TGI (RXF 393 renal): > 100 µM
TGI (DLD-1 colon): > 100 µM
TGI (SN12C renal): > 100 µM
TGI (SF-295 CNS): > 100 µM
TGI (HOP-62 NSCLC): > 100 µM
TGI (MOLT-4 leukemia): > 100 µM
TGI (SF-268 CNS): > 100 µM
TGI (LXFL 529 NSCLC): > 100 µM
TGI (SW-620 colon): > 100 µM
TGI (HCC-2998 colon): > 100 µM
TGI (U251 CNS): > 100 µM
TGI (OVCAR-4 ovarian): > 100 µM
TGI (NCI-H226 lung): > 100 µM
TGI (NCI-H522 lung): > 100 µM
TGI (KM20L2 colon): > 100 µM
TGI (CCRF-CEM leukemia): > 100 µM
TGI (HCT-116 colon): > 100 µM
TGI (SK-MEL-2 melanoma): > 100 µM
TGI (RPMI-8226 leukemia): > 100 µM
TGI (HT29 colon): > 100 µM
TGI (DMS 273 small cell lung): > 100 µM
TGI (ACHN renal): > 100 µM
TGI (UACC-62 melanoma): > 100 µM

COC(=O)c1oc([N+](=O)[O-])c(-c2ccccc2)c1-c1ccccc1
TGI (DMS 114 small cell lung): > 100 µM
TGI (SNB-19 CNS): > 100 µM
TGI (SNB-75 CNS): > 100 µM
TGI (NCI-H23 lung): > 100 µM
TGI (COLO 205 colon): > 100 µM
TGI (NCI-H460 lung): > 100 µM
TGI (LOX IMVI melanoma): > 100 µM
TGI (IGROV1 ovarian): > 100 µM
TGI (M14 melanoma): > 100 µM
TGI (SK-MEL-5 melanoma): > 100 µM
TGI (K-562 leukemia): > 100 µM
TGI (OVCAR-8 ovarian): > 100 µM
TGI (HOP-92 NSCLC): > 100 µM
TGI (UACC-257 melanoma): > 100 µM
TGI (786-0 renal): > 100 µM
TGI (M19-MEL melanoma): > 100 µM
TGI (OVCAR-5 ovarian): > 100 µM
TGI (A498 renal): > 100 µM
TGI (RXF-631 renal): > 100 µM
TGI (HOP-18 NSCLC): > 100 µM
TGI (A549 NSCLC): > 100 µM
TGI (SNB-78 CNS): > 100 µM
TGI (EKVX NSCLC): > 100 µM
TGI (SK-OV-3 ovarian): > 100 µM
TGI (UO-31 renal): > 100 µM
TGI (MALME-3M melanoma): > 100 µM
TGI (KM12 colon): > 100 µM
TGI (CAKI-1 renal): > 100 µM
TGI (SF-539 CNS): > 100 µM
TGI (XF 498 CNS): > 100 µM
TGI (SK-MEL-28 melanoma): > 100 µM
TGI (TK-10 renal): > 100 µM
TGI (DLD-1 colon): > 100 µM
TGI (SN12C renal): > 100 µM
TGI (SF-295 CNS): > 100 µM
TGI (HOP-62 NSCLC): > 100 µM
TGI (MOLT-4 leukemia): > 100 µM
TGI (SF-268 CNS): > 100 µM
TGI (LXFL 529 NSCLC): > 100 µM
TGI (SW-620 colon): > 100 µM
TGI (HCC-2998 colon): > 100 µM
TGI (U251 CNS): > 100 µM
TGI (OVCAR-4 ovarian): > 100 µM
TGI (NCI-H226 lung): > 100 µM
TGI (NCI-H522 lung): > 100 µM
TGI (KM20L2 colon): > 100 µM
TGI (CCRF-CEM leukemia): > 100 µM
TGI (HCT-116 colon): > 100 µM
TGI (SK-MEL-2 melanoma): > 100 µM
TGI (RPMI-8226 leukemia): > 100 µM
TGI (HT29 colon): > 100 µM
TGI (DMS 273 small cell lung): > 100 µM
TGI (OVCAR-3 ovarian): > 100 µM
TGI (ACHN renal): > 100 µM
TGI (UACC-62 melanoma): > 100 µM
